Data: patent publication US12358886B2, “Heterocyclic compounds for use in the treatment of cancer” (Artios Pharma Limited, priority 2019, dated 2025)

These molecules were tested against Polθ protein (amino acids 2-2590) (Homo sapiens, UniProt O75417) (assay: Polθ full length enzyme potency assay (PicoGreen)). Settings: Polθ IC50 (nM), full length N-His, C-term FLAG tagged Polθ, PicoGreen fluorescence, 12 point concentration response.
Polθ protein (amino acids 2-2590), sequence (O75417 2-2590): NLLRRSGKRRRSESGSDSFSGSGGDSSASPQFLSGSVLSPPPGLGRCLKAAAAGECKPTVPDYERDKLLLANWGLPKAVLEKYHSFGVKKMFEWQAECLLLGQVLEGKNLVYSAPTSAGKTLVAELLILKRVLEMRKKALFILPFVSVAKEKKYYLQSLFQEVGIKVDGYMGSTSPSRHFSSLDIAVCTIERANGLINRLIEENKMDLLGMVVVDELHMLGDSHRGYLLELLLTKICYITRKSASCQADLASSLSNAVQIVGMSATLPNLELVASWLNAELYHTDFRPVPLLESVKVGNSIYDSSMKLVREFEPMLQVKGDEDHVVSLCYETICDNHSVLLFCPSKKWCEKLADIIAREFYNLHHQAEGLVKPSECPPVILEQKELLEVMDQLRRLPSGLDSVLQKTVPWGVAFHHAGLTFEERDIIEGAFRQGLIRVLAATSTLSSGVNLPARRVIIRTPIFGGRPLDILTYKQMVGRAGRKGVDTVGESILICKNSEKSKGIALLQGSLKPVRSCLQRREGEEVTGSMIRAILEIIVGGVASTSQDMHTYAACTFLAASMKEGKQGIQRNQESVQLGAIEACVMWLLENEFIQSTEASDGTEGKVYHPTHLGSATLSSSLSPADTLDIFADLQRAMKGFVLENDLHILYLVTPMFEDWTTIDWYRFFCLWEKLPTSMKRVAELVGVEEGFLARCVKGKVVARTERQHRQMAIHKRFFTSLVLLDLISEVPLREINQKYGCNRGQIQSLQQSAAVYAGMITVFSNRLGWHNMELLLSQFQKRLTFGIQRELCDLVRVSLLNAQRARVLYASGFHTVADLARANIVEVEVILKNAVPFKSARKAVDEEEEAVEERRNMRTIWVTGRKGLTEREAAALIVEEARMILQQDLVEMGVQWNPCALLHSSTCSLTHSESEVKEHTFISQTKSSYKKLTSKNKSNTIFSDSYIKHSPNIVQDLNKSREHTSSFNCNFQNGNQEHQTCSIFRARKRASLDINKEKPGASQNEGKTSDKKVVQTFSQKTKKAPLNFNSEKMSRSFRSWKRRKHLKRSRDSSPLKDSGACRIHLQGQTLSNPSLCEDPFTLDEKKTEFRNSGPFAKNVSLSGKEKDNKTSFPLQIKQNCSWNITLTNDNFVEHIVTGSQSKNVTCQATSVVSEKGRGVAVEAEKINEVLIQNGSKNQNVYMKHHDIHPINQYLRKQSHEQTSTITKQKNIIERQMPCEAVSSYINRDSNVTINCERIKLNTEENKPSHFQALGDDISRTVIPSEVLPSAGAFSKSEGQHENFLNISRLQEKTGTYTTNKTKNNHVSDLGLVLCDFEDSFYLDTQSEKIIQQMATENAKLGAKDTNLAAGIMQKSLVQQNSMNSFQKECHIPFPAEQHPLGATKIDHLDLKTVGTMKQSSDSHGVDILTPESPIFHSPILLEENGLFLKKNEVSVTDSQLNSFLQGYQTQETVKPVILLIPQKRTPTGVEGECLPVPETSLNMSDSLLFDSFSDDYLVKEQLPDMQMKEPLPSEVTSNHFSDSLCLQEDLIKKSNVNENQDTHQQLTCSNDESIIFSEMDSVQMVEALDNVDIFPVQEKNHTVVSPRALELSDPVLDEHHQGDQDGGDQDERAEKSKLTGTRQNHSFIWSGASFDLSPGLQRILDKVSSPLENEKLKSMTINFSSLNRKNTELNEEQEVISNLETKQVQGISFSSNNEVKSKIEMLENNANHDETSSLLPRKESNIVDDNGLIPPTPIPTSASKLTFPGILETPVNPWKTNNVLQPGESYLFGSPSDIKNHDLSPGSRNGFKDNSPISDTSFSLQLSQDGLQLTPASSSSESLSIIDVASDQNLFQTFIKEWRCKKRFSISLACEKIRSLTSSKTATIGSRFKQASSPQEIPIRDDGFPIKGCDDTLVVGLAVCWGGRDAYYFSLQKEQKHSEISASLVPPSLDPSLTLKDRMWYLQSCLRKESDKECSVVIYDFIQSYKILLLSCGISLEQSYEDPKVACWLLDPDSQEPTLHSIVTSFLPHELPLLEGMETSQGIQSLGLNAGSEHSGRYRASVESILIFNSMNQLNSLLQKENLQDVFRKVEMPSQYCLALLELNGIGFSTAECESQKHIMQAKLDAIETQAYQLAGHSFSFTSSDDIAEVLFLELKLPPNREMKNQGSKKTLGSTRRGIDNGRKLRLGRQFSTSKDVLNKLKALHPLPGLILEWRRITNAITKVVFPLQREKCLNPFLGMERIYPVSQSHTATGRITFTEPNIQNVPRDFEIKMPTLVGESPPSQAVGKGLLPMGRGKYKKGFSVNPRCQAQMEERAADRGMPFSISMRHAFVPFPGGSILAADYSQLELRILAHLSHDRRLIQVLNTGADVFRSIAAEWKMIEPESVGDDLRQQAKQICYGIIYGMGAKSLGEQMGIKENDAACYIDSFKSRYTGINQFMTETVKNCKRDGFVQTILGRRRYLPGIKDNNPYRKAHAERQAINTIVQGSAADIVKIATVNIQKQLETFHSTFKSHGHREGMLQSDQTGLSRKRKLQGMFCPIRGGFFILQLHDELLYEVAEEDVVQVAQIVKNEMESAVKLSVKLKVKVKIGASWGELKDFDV

Compound | IC50
CC(=O)N(C)C1CCN(CCN2C[C@@H](C(=O)N(C)c3ccc(F)c(Cl)c3F)N(c3cc(C(F)(F)F)cc(C)n3)C2=O)C1 (stereo partly drawn) [Example 207, (4S)-N-(3-Chloro-2,4-difluoro-phenyl)-N-methyl-3-(6-methyl-4-(trifluoromethyl)pyridin-2-yl)-1-(2-(3-(N-methylacetamido)-pyrrolidin-1-yl)ethyl)-2-oxoimidazolidine-4-carboxamide] | 7 nM
CCN(C(=O)[C@@H]1C[C@H](N[C@@H]2CCOC[C@H]2O)CN1c1cc(C(F)(F)F)cc(C)n1)c1ccc(F)c(F)c1 [Example 131, (2S,4S)-N-(3,4-Difluorophenyl)-N-ethyl-4-(((3S,4R)-3-hydroxytetrahydro-2H-pyran-4-yl)amino)-1-(6-methyl-4-(trifluoromethyl)pyridin-2-yl)pyrrolidine-2-carboxamide] | 248 nM
CCN(C(=O)[C@@H]1C[C@H](N(C)[C@@H]2CN(C(=O)OC(C)(C)C)C[C@H]2O)CN1c1cc(C(F)(F)F)cc(C)n1)c1ccc(F)c(F)c1 (racemic) [Example 143, rac-tert-Butyl (3R,4R)-3-(((3S,5S)-5-((3,4-difluorophenyl)(ethyl)carbamoyl)-1-(6-methyl-4-(trifluoromethyl)pyridin-2-yl)pyrrolidin-3-yl)(methyl)amino)-4-hydroxypyrrolidine-1-carboxylate] | 409 nM

The remaining lines, values ahead:

IC50 | Compound
18 nM | C=Cc1c(F)ccc(N(C)C(=O)[C@@H]2COC(=O)N2c2cc(C(F)(F)F)cc(C)n2)c1F [Example 107, (S)—N-(2,4-Difluoro-3-vinylphenyl)-N-methyl-3-(6-methyl-4-(trifluoromethyl)pyridin-2-yl)-2-oxooxazolidine-4-carboxamide]
109 nM | Cc1cc(C(F)(F)F)cc(N2C(=O)OC[C@H]2C(=O)N(C)c2cccc(N(C)C)n2)n1 [Example 177, (S)—N-(6-(Dimethylamino)pyridin-2-yl)-N-methyl-3-(6-methyl-4-(trifluoromethyl)pyridin-2-yl)-2-oxooxazolidine-4-carboxamide]
56 nM | Cc1cc(C(F)(F)F)cc(N2C(=O)[C@@H](O)[C@@H](O)[C@H]2C(=O)N(C)c2ccc3ccn(C)c3n2)n1 [Example 167, (2S,3S,4S)-3,4-Dihydroxy-N-methyl-N-(1-methyl-1H-pyrrolo[2,3-b]pyridin-6-yl)-1-(6-methyl-4-(trifluoromethyl)pyridin-2-yl)-5-oxopyrrolidine-2-carboxamide]

Same assay, conditions: read-out: Polθ IC50; full length N-His, C-term FLAG tagged Polθ, PicoGreen fluorescence, 12 point concentration response

IC50 | Compound
15 nM | Cc1cc(C(F)(F)F)cc(N2C(=O)N(CC3CN(C)C(=O)O3)C[C@H]2C(=O)N(C)c2ccc(F)c(Cl)c2F)n1 (single isomer, unassigned; isomer 1) [Example 229]
